According to publication PMC13308190, “Endothelial progenitor cell susceptibility to DNA damaging and DDR-modulating compounds determines endothelial differentiation accuracy” (Stem Cell Research & Therapy, 2026):

Tests used:
Format in all cases: cell-based, mouse
[1] = system: EC d4 (endothelial progenitor cells); experiment: RT-qPCR mRNA expression; details: for Ccl2 mRNA / E-selectin mRNA / Icam-1 mRNA / Vcam-1 mRNA / eNos mRNA / iNos mRNA: Fig 8D; for Cdkn1a mRNA / Cdkn2a mRNA / Glb1 mRNA / Il6 mRNA / Il8 mRNA / Tp53 mRNA: Fig 7B; for Brca1 mRNA / Chk1 mRNA / Rad51 mRNA: Fig 5C; for Pgc1a mRNA: Fig 6D; for Cldn5 mRNA / Ocln mRNA / Tjp1 mRNA: Fig 8C; for Ldlr mRNA: Fig 8F
Procedure: Total RNA was purified using the RNeasy Mini Kit (Qiagen, Hilden, Germany). Reverse transcriptase (RT) reaction was performed with the HighCapacity cDNA Reverse Transcription Kit (Applied Biosystems, Darmstadt, Germany) using 900–2000 ng of RNA. Quantitative RT-qPCR analysis was performed using following conditions: (1) 95 °C–10 min; (2) 45 amplification cycles with 95 °C–15 s, 55 °C–15 s, and 72 °C–17 s; (3) 95 °C–1 min, 55 °C–1 min, 65 °C–5 s. If not stated otherwise, analyses were performed in technical triplicates using pooled samples from two independent experiments (each performed with biological duplicates) by use of a CFX96 cycler (BioRad) and the SensiMix SYBR Kit (Bioline, London, UK). The primers used for mRNA expression analyses are listed in Supplementary Table 1. To ensure the specificity of the amplification product, melting curves were recorded at the end of the run. mRNA expression levels were normalized to β-Actin and Gapdh. Relative mRNA expression in mESC or corresponding untreated controls was set to 1.0. Only changes in gene expression of ≤ 0.5- and ≥ 2-fold were considered as biologically relevant.
To monitor prototypical functions of endothelial cells, the uptake of fluorescent 1,1-dioctadecyl-3,3,3,3-tetra-methylindocarbocyanine-labeled acetylated LDL (Dil-acLDL) was examined. Briefly, cells were incubated with Dil-acLDL (10 µg/ml, 4 h, 37 °C). After fixation (3.7% cold formaldehyde/PBS (15 min, RT) nuclei were counterstained with DAPI. The uptake of DiI-acLDL was analyzed by fluorescence microscopy (Olympus BX43, 20x objective). Additionally, the response of differentiated EC to inflammatory cytokines was measured. After treatment with a pro-inflammatory cytokine mixture (TNFα/IL-1β, 10 ng/mL) for 1 h, mRNA expression of activated EC markers E-selectin, Icam-1, Vcam-1, Ccl2, eNos, iNos was analyzed (RT-qPCR).

EC d4 [2] = experiment: Nuclear γH2AX / 53BP1 foci (DSB); details: EC d4 48 h, equitoxic concentrations
Procedure: (§1) DNA double-strand breaks were monitored by immunocytochemical detection of nuclear γH2AX and 53BP1 foci. Cells were fixed with 3.7% formaldehyde/PBS (15 min, RT) and permeabilized (0.3% TritonX/PBS; 15 min, RT). […] Cell suspension was mixed with 0.5% low melting point agarose and applied onto glass slides coated with 1.5% agarose. After lysis in alkaline buffer (pH 10, 1 h, 4 °C, protected from light) and DNA denaturation in precooled electrophoresis buffer (pH > 13, 25 min, 4 °C, protected from light) electrophoresis was performed (300 mA, 25 V, 4 °C, 25 min).

mESC [3] = experiment: Nuclear γH2AX / 53BP1 foci (DSB); details: mESC 24 h, equitoxic concentrations
Procedure: as §1

mESC [4] = experiment: AlamarBlue cell viability
Procedure: (§2) Drug-induced cytotoxicity was monitored by analyzing cell viability using the AlamarBlue assay, which measures the reduction of the non-fluorescent dye resazurin (Sigma [Steinheim, Germany]) to fluorescent resorufin by living (i.e. metabolically active) cells. Fluorescence was measured in quadruplicates (excitation: 535 nm, emission: 590 nm (Tecan infinite 200, Tecan, Männedorf, Switzerland)). Relative cell viability of the untreated control was set to 100%.

[5] = system: EC d4 (endothelial progenitor cells); experiment: AlamarBlue cell viability; details: 48 h treatment
Procedure: as §2

EC d6 = experiment: ZO1 tight junction immunofluorescence; details: analysed 2 days later
EC d4 [6] = experiment: EdU incorporation (S-phase activity); details: EC d4 48 h
Procedure: S-phase activity of cells was monitored by measuring EdU incorporation using the EdU-Click 488 assay according to the manufacturer’s protocol. Briefly, cells were pulse-treated with 5-ethynyl-2′-deoxyuridine (EdU) for 3 h. Alexa Fluor 488-conjugated reaction cocktail was added (30 min, RT) and nuclei were counterstained with DAPI. The percentage of EdU-positive area/DAPI-positive area was calculated by fluorescence microscopy (Olympus BX43, 20x objective).

[7] = EC d4 + 5 µM 48 h, analysed in EC d6
[8] = EC d4 + 5 µM 48 h, then + I/T (IL-1β/TNFα 10 ng/ml, 1 h)
[9] = EC d4 + 15 µM 48 h, analysed day 6, Fig 1C
[10] = EC d4 + 15 µM 48 h, analysed in EC d6
[11] = EC d4 + 15 µM 48 h, then + I/T (IL-1β/TNFα 10 ng/ml, 1 h)
[12] = EC d4 + 0.5 µM 48 h, analysed in EC d6
[13] = EC d4 + 0.5 µM 48 h, then + I/T (IL-1β/TNFα 10 ng/ml, 1 h)
[14] = EC d4 + 1 µM 48 h, analysed day 6, Fig 1C
[15] = EC d4 + 1 µM 48 h, analysed in EC d6
[16] = EC d4 + 1 µM 48 h, then + I/T (IL-1β/TNFα 10 ng/ml, 1 h)

O=c1c2ccccc2nc(/C=C/c2cccnc2)n1Cc1ccccc1 [B02]
Ccl2 mRNA [1, 7]: 2.96 Fold of untreated control
E-selectin mRNA [1, 7]: 120.46 Fold of untreated control
Icam-1 mRNA [1, 7]: 3.12 Fold of untreated control
Vcam-1 mRNA [1, 7]: 0.19 Fold of untreated control
eNos mRNA [1, 7]: 153.40 Fold of untreated control
iNos mRNA [1, 7]: 2.01 Fold of untreated control
Ccl2 mRNA [1, 8]: 279.77 Fold of untreated control
E-selectin mRNA [1, 8]: 257.65 Fold of untreated control
Icam-1 mRNA [1, 8]: 9.69 Fold of untreated control
Vcam-1 mRNA [1, 8]: 0.36 Fold of untreated control
eNos mRNA [1, 8]: 184.04 Fold of untreated control
iNos mRNA [1, 8]: 2.26 Fold of untreated control
Cdkn1a mRNA ([1]; EC d4 + 5 µM 48 h): 1.71 Fold of untreated control
Cdkn2a mRNA ([1]; EC d4 + 5 µM 48 h): 1.24 Fold of untreated control
Glb1 mRNA ([1]; EC d4 + 5 µM 48 h): 1.45 Fold of untreated control
Il6 mRNA ([1]; EC d4 + 5 µM 48 h): 0.80 Fold of untreated control
Il8 mRNA ([1]; EC d4 + 5 µM 48 h): 0.83 Fold of untreated control
Tp53 mRNA ([1]; EC d4 + 5 µM 48 h): 0.98 Fold of untreated control
Flk1 mRNA [1, 9]: 6.99 Fold of mESC
Nanog mRNA [1, 9]: 0.03 Fold of mESC
Oct4 mRNA [1, 9]: 0.01 Fold of mESC
Pecam1 mRNA [1, 9]: 0.62 Fold of mESC
Tie1 mRNA [1, 9]: 29.11 Fold of mESC
VE-cad mRNA [1, 9]: 484.74 Fold of mESC
Ccl2 mRNA [1, 10]: 0.38 Fold of untreated control
E-selectin mRNA [1, 10]: 126.11 Fold of untreated control
Icam-1 mRNA [1, 10]: 1.02 Fold of untreated control
Vcam-1 mRNA [1, 10]: 0.08 Fold of untreated control
eNos mRNA [1, 10]: 47.93 Fold of untreated control
iNos mRNA [1, 10]: 0.43 Fold of untreated control
Ccl2 mRNA [1, 11]: 84.86 Fold of untreated control
E-selectin mRNA [1, 11]: 165.16 Fold of untreated control
Icam-1 mRNA [1, 11]: 2.52 Fold of untreated control
Vcam-1 mRNA [1, 11]: 0.12 Fold of untreated control
eNos mRNA [1, 11]: 55.08 Fold of untreated control
iNos mRNA [1, 11]: 0.33 Fold of untreated control
Brca1 mRNA ([1]; EC d4 + 15 µM 48 h): 0.27 Fold of mESC
Chk1 mRNA ([1]; EC d4 + 15 µM 48 h): 0.92 Fold of mESC
Rad51 mRNA ([1]; EC d4 + 15 µM 48 h): 0.19 Fold of mESC
Pgc1a mRNA ([1]; EC d4 + 15 µM 48 h): 0.11 Fold of untreated control
Cdkn1a mRNA ([1]; EC d4 + 15 µM 48 h): 2.57 Fold of untreated control
Cdkn2a mRNA ([1]; EC d4 + 15 µM 48 h): 1.39 Fold of untreated control
Glb1 mRNA ([1]; EC d4 + 15 µM 48 h): 2.55 Fold of untreated control
Il6 mRNA ([1]; EC d4 + 15 µM 48 h): 1.35 Fold of untreated control
Il8 mRNA ([1]; EC d4 + 15 µM 48 h): 0.85 Fold of untreated control
Tp53 mRNA ([1]; EC d4 + 15 µM 48 h): 0.72 Fold of untreated control
Cldn5 mRNA ([1]; EC d4 + 15 µM 48 h): 0.18 Fold of EC d4 or d6
Ocln mRNA ([1]; EC d4 + 15 µM 48 h): 1.16 Fold of EC d4 or d6
Tjp1 mRNA ([1]; EC d4 + 15 µM 48 h): 1.26 Fold of EC d4 or d6
Ldlr mRNA ([1]; EC d4 + 15 µM 48 h): 1.78 Fold of untreated control
DSB numbers (γH2AX / 53BP1 foci) (EC d4 [2]): clear increase
nuclear γH2AX foci (mESC [3]): significant increase
IC50 (mESC [4]; 24–72 h treatment): ~20 µM
susceptibility (cell viability) of EC d4 as compared to both mESC and EC d6 [5]: not observed
ZO1 assembly in treated EC d6 (EC d6): clearly visible gaps
S-phase activity (EdU-positive cells) (EC d4 [6]): decrease in S-phase activity

Nc1ccccc1NC(=O)c1ccc(CNC(=O)OCc2cccnc2)cc1 [EST, entinostat]
Ccl2 mRNA [1, 12]: 4.20 Fold of untreated control
Icam-1 mRNA [1, 12]: 6.04 Fold of untreated control
Vcam-1 mRNA [1, 12]: 0.80 Fold of untreated control
eNos mRNA [1, 12]: 156.02 Fold of untreated control
iNos mRNA [1, 12]: 4.21 Fold of untreated control
Ccl2 mRNA [1, 13]: 454.50 Fold of untreated control
Icam-1 mRNA [1, 13]: 26.69 Fold of untreated control
Vcam-1 mRNA [1, 13]: 1.68 Fold of untreated control
eNos mRNA [1, 13]: 165.80 Fold of untreated control
iNos mRNA [1, 13]: 4.06 Fold of untreated control
Cdkn1a mRNA ([1]; EC d4 + 0.5 µM 48 h): 1.59 Fold of untreated control
Cdkn2a mRNA ([1]; EC d4 + 0.5 µM 48 h): 1.29 Fold of untreated control
Glb1 mRNA ([1]; EC d4 + 0.5 µM 48 h): 1.41 Fold of untreated control
Il6 mRNA ([1]; EC d4 + 0.5 µM 48 h): 0.99 Fold of untreated control
Il8 mRNA ([1]; EC d4 + 0.5 µM 48 h): 0.80 Fold of untreated control
Tp53 mRNA ([1]; EC d4 + 0.5 µM 48 h): 1.018 Fold of untreated control
Flk1 mRNA [1, 14]: 19.60 Fold of mESC
Nanog mRNA [1, 14]: 0.05 Fold of mESC
Oct4 mRNA [1, 14]: 0.05 Fold of mESC
Pecam1 mRNA [1, 14]: 1.30 Fold of mESC
VE-cad mRNA [1, 14]: 858.76 Fold of mESC
Ccl2 mRNA [1, 15]: 0.90 Fold of untreated control
Icam-1 mRNA [1, 15]: 5.21 Fold of untreated control
Vcam-1 mRNA [1, 15]: 0.49 Fold of untreated control
eNos mRNA [1, 15]: 58.94 Fold of untreated control
Ccl2 mRNA [1, 16]: 132.23 Fold of untreated control
Icam-1 mRNA [1, 16]: 19.80 Fold of untreated control
Vcam-1 mRNA [1, 16]: 1.55 Fold of untreated control
eNos mRNA [1, 16]: 53.06 Fold of untreated control
iNos mRNA [1, 16]: 1.30 Fold of untreated control
Brca1 mRNA ([1]; EC d4 + 1 µM 48 h): 0.32 Fold of mESC
Chk1 mRNA ([1]; EC d4 + 1 µM 48 h): 0.51 Fold of mESC
Rad51 mRNA ([1]; EC d4 + 1 µM 48 h): 0.26 Fold of mESC
Pgc1a mRNA ([1]; EC d4 + 1 µM 48 h): 0.21 Fold of untreated control
Cdkn1a mRNA ([1]; EC d4 + 1 µM 48 h): 1.62 Fold of untreated control
Cdkn2a mRNA ([1]; EC d4 + 1 µM 48 h): 1.49 Fold of untreated control
Glb1 mRNA ([1]; EC d4 + 1 µM 48 h): 1.61 Fold of untreated control
Il6 mRNA ([1]; EC d4 + 1 µM 48 h): 1.09 Fold of untreated control
Il8 mRNA ([1]; EC d4 + 1 µM 48 h): 0.57 Fold of untreated control
Tp53 mRNA ([1]; EC d4 + 1 µM 48 h): 0.99 Fold of untreated control
Cldn5 mRNA ([1]; EC d4 + 1 µM 48 h): 0.55 Fold of EC d4 or d6
Ocln mRNA ([1]; EC d4 + 1 µM 48 h): 1.06 Fold of EC d4 or d6
Tjp1 mRNA ([1]; EC d4 + 1 µM 48 h): 1.56 Fold of EC d4 or d6
Ldlr mRNA ([1]; EC d4 + 1 µM 48 h): 0.66 Fold of untreated control
DSB numbers (γH2AX / 53BP1 foci) (EC d4 [2]): clear increase
nuclear γH2AX foci (mESC [3]): significant increase
IC50 (mESC [4]; Mus musculus, 24 h treatment): 18.8 µM
IC50 (mESC [4]; Mus musculus, 72 h treatment): 2.6 µM
susceptibility (cell viability) of EC d4 as compared to both mESC and EC d6 [5]: significant higher
ZO1 assembly in treated EC d6 (EC d6): clearly visible gaps
S-phase activity (EdU-positive cells) (EC d4 [6]): not
